Experimental data: patent US20250179061A1 (SIRONAX LTD., priority 2022, published 2025)

System: HT-29 cells
Experiment: HT-29 necroptosis cell viability assay (TNF-α/SMAC mimetic/zVAD-FMK, CellTiter-Glo)
Assay type: cell-based
Conditions: Homo sapiens, HT-29, HT-29 cells, necroptosis induced by TNF-α/SMAC mimetic/zVAD-FMK, CellTiter-Glo; read-out: Activity (IC50 class)
How it was run: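 Necroptosis was triggered by TNF-α (10 ng/ml), SMAC mimetic (6 μM) and zVAD-FMK (10 μM) in serum-free medium during 20 h compound exposure (10 concentrations, threefold steps) of HT-29 cells. IC50 from duplicate dose-responses uses CellTiter-Glo ATP luminescence as viability read-out.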

| Compound | IC50 |
| --- | --- |
| Cc1ncsc1OC1CCC(n2nc3n(c2=O)[C@H](c2ccccc2)CC3)CC1 (single isomer, unassigned) [Example 636] | 100 to 1000 nM |
| Cc1nc(Br)sc1Oc1ncc(-n2ncn(Cc3c(F)cccc3F)c2=O)cc1F [Example 645, 2-(6-((2-bromo-4-methylthiazol-5-y1)oxy)-5-fluoropyridin-3-yl)-4-(2,6-difluorobenzyl)-2,4-dihydro-3H-1,2,4-triazol-3-one] | < 100 nM |
| Cc1nc(C(N)=O)sc1Oc1ncc(-n2nc3n(c2=O)[C@@H](c2ccccc2)CC3)cc1F (single isomer, unassigned) [Example 639] | 100 to 1000 nM |

Same assay, conditions: Homo sapiens, HT-29, HT-29 necroptosis cell viability assay; class symbols for IC50; read-out: Activity

| Compound | IC50 |
| --- | --- |
| CCOC1CN(c2cc(Oc3ccc(-n4ncn(Cc5c(Cl)cccc5Cl)c4=O)cc3)ccn2)C1 [Example 486, 4-(2,6-dichlorobenzyl)-2-(4-((2-(3-ethoxyazetidin-1-yl)pyridin-4-yl)oxy)phenyl)-2,4-dihydro-3H-1,2,4-triazol-3-one] | 100 to 1000 nM |
| Cc1nc(CO)cn1Cc1ccc(-n2nc3n(c2=O)C(c2ccccc2)CC3)cc1F (stereo not shown) [Example 220, 2-(3-fluoro-4-((4-(hydroxymethyl)-2-methyl-1H-imidazol-1-yl)methyl)phenyl)-5-phenyl-2,5,6,7-tetrahydro-3H-pyrrolo[2,1-c][1,2,4]triazol-3-one] | 100 to 1000 nM |
| Cc1nc(C(C)(C)O)c(Oc2ccc(-n3ncn(Cc4c(F)cccc4F)c3=O)cc2F)s1 [Example 126, 4-(2,6-difluorobenzyl)-2-(3-fluoro-4-((4-(2-hydroxypropan-2-yl)-2-methylthiazol-5-yl)oxy)phenyl)-2,4-dihydro-3H-1,2,4-triazol-3-one] | 100 to 1000 nM |
| Cc1nc(NC(=O)OC(C)(C)C)sc1S(=O)(=O)c1ccc(-n2ncn(Cc3ccccc3)c2=O)cc1 [Example 629, tert-butyl (5-((4-(4-benzyl-5-oxo-4,5-dihydro-1H-1,2,4-triazol-1-yl)phenyl)sulfonyl)-4-methylthiazol-2-yl)carbamate] | 100 to 1000 nM |
| O=c1n(Cc2c(F)cccc2F)cnn1-c1ccc(Oc2ccnc(N3CCCC3)c2)cc1 [Example 525, 4-(2,6-difluorobenzyl)-2-(4-((2-(pyrrolidin-1-yl)pyridin-4-yl)oxy)phenyl)-2,4-dihydro-3H-1,2,4-triazol-3-one] | 100 to 1000 nM |

Same assay, conditions: Homo sapiens, HT-29, HT-29 necroptosis cell viability, IC50 class symbols; read-out: Activity

| Compound | IC50 |
| --- | --- |
| CCNC1(C)CN(c2cc(Oc3ccc(-n4ncn(Cc5c(F)cccc5F)c4=O)cc3F)c(F)cn2)C1 [Example 419, 4-(2,6-difluorobenzyl)-2-(4-((2-(3-(ethylamino)-3-methylazetidin-1-yl)-5-fluoropyridin-4-yl)oxy)-3-fluorophenyl)-2,4-dihydro-3H-1,2,4-triazol-3-one] | 100 to 1000 nM |
| O=c1n(Cc2c(F)cccc2F)cnn1-c1ccc(Oc2ccnc(N3CC4(CCCO4)C3)c2)cc1 [Example 331, 2-(4-((2-(5-oxa-2-azaspiro[3.4]octan-2-yl)pyridin-4-yl)oxy)phenyl)-4-(2,6-difluorobenzyl)-2,4-dihydro-3H-1,2,4-triazol-3-one] | < 100 nM |
| C[C@H]1[C@H](NC(=O)OC(C)(C)C)CN1c1cc(Oc2ccc(-n3ncn(Cc4c(F)cccc4F)c3=O)cc2F)c(F)cn1 [Example 376, tert-butyl ((2S,3R)-1-(4-(4-(4-(2,6-difluorobenzyl)-5-oxo-4,5-dihydro-1H-1,2,4-triazol-1-yl)-2-fluorophenoxy)-5-fluoropyridin-2-yl)-2-methylazetidin-3-yl)carbamate] | < 100 nM |
| C[C@H]1C[C@@H](C#N)CN1c1cc(Oc2ccc(-n3ncn(Cc4c(F)cccc4F)c3=O)cc2F)c(F)cn1 [Example 284, (3R,5S)-1-(4-(4-(4-(2,6-difluorobenzyl)-5-oxo-4,5-dihydro-1H-1,2,4-triazol-1-yl)-2-fluorophenoxy)-5-fluoropyridin-2-yl)-5-methylpyrrolidine-3-carbonitrile] | < 100 nM |

Same assay, conditions: Homo sapiens; HT-29 cells stimulated with TNF-α (10 ng/ml), SMAC mimetic (6 μM) and zVAD-FMK (10 μM); 20 hours; CellTiter-Glo ATP luminescence; geometric mean IC50 from 10 points; read-out: Activity

| Compound | IC50 |
| --- | --- |
| COC(=O)c1nc(C)c(Oc2ccc(-n3nc4n(c3=O)[C@H](c3ccccc3)CC4)cc2F)s1 (single isomer, unassigned) [Example 36] | < 100 nM |
